# Results published in ChEMBL document CHEMBL4052715, “Discovery of novel DAPY-IAS hybrid derivatives as potential HIV-1 inhibitors using molecular hybridization based on crystallographic overlays” (Bioorg Med Chem, 2017).
# pEC50: −log10 of the molar value. Calls of active or inactive are those of the source. No cut-off for these calls is given here.
# How the values were obtained:
# [1] = Cytotoxicity against human MT4 cells assessed as reduction in cell viability after 5 days by MTT assay; assay type: cell-based
# [2] = system: Human immunodeficiency virus 1; experiment: Antiviral activity against wild type HIV1 3B infected in human MT4 cells assessed as inhibition of virus-induced cytopathic effect after 5 days by MTT assay; assay type: functional, cell-based; conditions: Human immunodeficiency virus 1, 3B, MT4, 120 h
# [3] = system: Human immunodeficiency virus 1; experiment: Antiviral activity against HIV1 RES056 harboring reverse transcriptase K103N/Y181C double mutant infected in human MT4 cells assessed as inhibition of virus-induced cytopathic effect after 5 days by MTT assay; assay type: functional, cell-based
# [4] = system: Human immunodeficiency virus 2; experiment: Antiviral activity against HIV2 ROD harboring reverse transcriptase K103N/Y181C double mutant infected in human MT4 cells assessed as inhibition of virus-induced cytopathic effect after 5 days by MTT assay; assay type: functional, cell-based; conditions: ISOLATE ROD
# [5] = Selectivity index, ratio of CC50 for human MT4 cells to EC50 for wild type HIV1 3B infected in human MT4 cells; assay type: toxicity, cell-based; conditions: read-out: Ratio CC50/EC50
# [6] = system: Human immunodeficiency virus 1; experiment: Inhibition of recombinant wild type HIV1 reverse transcriptase assessed as reduction in biotin-dUTP incorporation at 50 uM using poly(A)/oligo(dT)15 as template/primer by ELISA relative to control
compound,measurement,setting,value
N#Cc1ccc(Nc2nccc(NS(=O)(=O)c3cc(C(F)(F)F)cc(C(F)(F)F)c3)n2)cc1,CC50 at 120 h,[1],115 µM
same,pEC50,[2],< 3.94
same,inhibition,[3],inactive
same,inhibition,[4],inactive
same,selectivity ratio,[5],< 1
Cc1ccc(S(=O)(=O)Nc2ccnc(Nc3ccc(C#N)cc3)c2)cc1,CC50 at 120 h,[1],14 µM
same,inhibition,[6],5.7%
same,pEC50,[2],5.83
same,inhibition,[3],inactive
same,inhibition,[4],inactive
same,selectivity ratio,[5],9
O=c1[nH]cnc2c1ncn2[C@H]1CC[C@@H](CO)O1 [DIDANOSINE],CC50 at 120 h,[1],> 212 µM
same,pEC50,[2],4.12
same,selectivity ratio,[5],> 3
N#Cc1ccc(Nc2cc(NS(=O)(=O)c3ccc(C(F)(F)F)cc3)ccn2)cc1,CC50 at 120 h,[1],28 µM
same,pEC50,[2],< 4.55
same,inhibition,[3],inactive
same,inhibition,[4],inactive
same,selectivity ratio,[5],< 1
Nc1ccn([C@@H]2CS[C@H](CO)O2)c(=O)n1 [LAMIVUDINE],CC50 at 120 h,[1],> 87.2 µM
same,pEC50,[2],5.60
same,selectivity ratio,[5],> 34
N#Cc1ccc(Nc2nccc(NS(=O)(=O)c3ccc(C(F)(F)F)cc3)n2)cc1,CC50 at 120 h,[1],54.7 µM
same,pEC50,[2],< 4.26
same,inhibition,[3],inactive
same,inhibition,[4],inactive
same,selectivity ratio,[5],< 1
Cc1cc(C)c(S(=O)(=O)Nc2ccnc(Nc3ccc(C#N)cc3)c2)c(C)c1,CC50 at 120 h,[1],22.2 µM
same,pEC50,[2],5.22
same,inhibition,[3],inactive
same,inhibition,[4],inactive
same,selectivity ratio,[5],4
Cc1cc(C#N)cc(C)c1Oc1nc(Nc2ccc(C#N)cc2)nc(N)c1Br [ETRAVIRINE],CC50 at 120 h,[1],2.15 µM
same,inhibition,[6],93.3%
same,pEC50,[2],8.40
same,selectivity ratio,[5],541
Cc1cc(C)cc(S(=O)(=O)Nc2ccnc(Nc3ccc(C#N)cc3)c2)c1,CC50 at 120 h,[1],5.06 µM
same,pEC50,[2],< 5.30
same,inhibition,[3],inactive
same,inhibition,[4],inactive
same,selectivity ratio,[5],< 1
N#Cc1ccc(Nc2nccc(NS(=O)(=O)c3cc(F)cc(F)c3)n2)cc1,CC50 at 120 h,[1],93.9 µM
same,pEC50,[2],4.33
same,inhibition,[3],inactive
same,inhibition,[4],inactive
same,selectivity ratio,[5],2
N#Cc1ccc(Nc2nccc(NS(=O)(=O)c3ccc(C#N)cc3)n2)cc1,CC50 at 120 h,[1],159 µM
same,pEC50,[2],4.40
same,inhibition,[3],inactive
same,inhibition,[4],inactive
same,selectivity ratio,[5],4
N#Cc1ccc(Nc2nccc(NS(=O)(=O)c3ccc(F)cc3)n2)cc1,CC50 at 120 h,[1],36.6 µM
same,pEC50,[2],≤ 5.04
same,inhibition,[3],inactive
same,inhibition,[4],inactive
same,selectivity ratio,[5],≤ 4
Cc1cc(C)cc(S(=O)(=O)Nc2ccnc(Nc3ccc(C#N)cc3)n2)c1,CC50 at 120 h,[1],173 µM
same,pEC50,[2],5.21
same,inhibition,[3],inactive
same,inhibition,[4],inactive
same,selectivity ratio,[5],28
CC(C)(C)c1ccc(S(=O)(=O)Nc2ccnc(Nc3ccc(C#N)cc3)c2)cc1,CC50 at 120 h,[1],29.3 µM
same,pEC50,[2],5.31
same,inhibition,[3],inactive
same,inhibition,[4],inactive
same,selectivity ratio,[5],6
N#Cc1ccc(Nc2nccc(NS(=O)(=O)c3ccc4ccccc4c3)n2)cc1,CC50 at 120 h,[1],77.1 µM
same,pEC50,[2],4.31
same,inhibition,[3],inactive
same,inhibition,[4],inactive
same,selectivity ratio,[5],2
N#Cc1ccc(Nc2cc(NS(=O)(=O)c3ccc(C#N)cc3)ccn2)cc1,CC50 at 120 h,[1],93.4 µM
same,pEC50,[2],< 4.03
same,inhibition,[3],inactive
same,inhibition,[4],inactive
same,selectivity ratio,[5],< 1
N#Cc1ccc(Nc2cc(NS(=O)(=O)c3ccc(F)cc3)ccn2)cc1,CC50 at 120 h,[1],6.12 µM
same,pEC50,[2],< 5.21
same,inhibition,[3],inactive
same,inhibition,[4],inactive
same,selectivity ratio,[5],< 1
Cc1ccc(S(=O)(=O)Nc2ccnc(Nc3ccc(C#N)cc3)n2)cc1,CC50 at 120 h,[1],130 µM
same,inhibition,[6],41.5%
same,pEC50,[2],5.79
same,inhibition,[3],inactive
same,inhibition,[4],inactive
same,selectivity ratio,[5],80
CC(C)(C)c1ccc(S(=O)(=O)Nc2ccnc(Nc3ccc(C#N)cc3)n2)cc1,CC50 at 120 h,[1],30.3 µM
same,pEC50,[2],5.12
same,inhibition,[3],inactive
same,inhibition,[4],inactive
same,selectivity ratio,[5],4
Cc1cc(C)cc(S(=O)(=O)c2c(C(N)=O)[nH]c3ccc(Cl)cc23)c1,CC50 at 120 h,[1],11 µM
same,pEC50,[2],8.59
same,selectivity ratio,[5],4260
CC(C)c1cc(C(C)C)c(S(=O)(=O)Nc2ccnc(Nc3ccc(C#N)cc3)n2)c(C(C)C)c1,CC50 at 120 h,[1],17.4 µM
same,pEC50,[2],< 4.76
same,inhibition,[3],inactive
same,inhibition,[4],inactive
same,selectivity ratio,[5],< 1
N#Cc1ccc(Nc2cc(NS(=O)(=O)c3ccc4ccccc4c3)ccn2)cc1,CC50 at 120 h,[1],30 µM
same,pEC50,[2],< 4.52
same,inhibition,[3],inactive
same,inhibition,[4],inactive
same,selectivity ratio,[5],< 1
N#Cc1ccc(Nc2cc(NS(=O)(=O)c3cc(C(F)(F)F)cc(C(F)(F)F)c3)ccn2)cc1,CC50 at 120 h,[1],62.2 µM
same,pEC50,[2],< 4.21
same,inhibition,[3],inactive
same,inhibition,[4],inactive
same,selectivity ratio,[5],< 1
CC(C)c1cc(C(C)C)c(S(=O)(=O)Nc2ccnc(Nc3ccc(C#N)cc3)c2)c(C(C)C)c1,CC50 at 120 h,[1],11.5 µM
same,pEC50,[2],< 4.94
same,inhibition,[3],inactive
same,inhibition,[4],inactive
same,selectivity ratio,[5],< 1
Cc1ccnc2c1NC(=O)c1cccnc1N2C1CC1,inhibition,[6],88%
Cc1cc(C)c(S(=O)(=O)Nc2ccnc(Nc3ccc(C#N)cc3)n2)c(C)c1,CC50 at 120 h,[1],4.4 µM
same,pEC50,[2],< 5.36
same,inhibition,[3],inactive
same,inhibition,[4],inactive
same,selectivity ratio,[5],< 1
N#Cc1ccc(Nc2cc(NS(=O)(=O)c3cc(F)cc(F)c3)ccn2)cc1,CC50 at 120 h,[1],28.6 µM
same,pEC50,[2],< 4.54
same,inhibition,[3],inactive
same,inhibition,[4],inactive
same,selectivity ratio,[5],< 1
